Primed or numbered codes have the meaning given here. * marks the point of attachment. 10Ca = carbamate linkage conjugating the peptide-PEG to paclitaxel at C10; 10Ca‑PXL = paclitaxel conjugated at C10 via a carbamate; 3Am‑VBL = vinblastine (VBL) conjugate; PEG(13)″ = PEG(13) linker; PEG(11) = PEG(11) linker; Cbz = O=C(OCc1ccccc1)*; PEG(13) = PEG13 linker; Piv = CC(C)(C)C(=O)*; OBn = c1ccc(CO*)cc1; PXL = paclitaxel

Series [1] concerns HT-29 colorectal carcinoma. Put plainly: Cytotoxicity assay (monolayer), HT-29.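 Further: monolayer cultures tested in triplicate, compound exposure for three days against DMSO vehicle controls, EC50 fitted from dose-response curves and averaged across all tests and lots.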 In kind it is cell-based. To be noted: HT29, ML (monolayer); read-out: HT29 (EC50 Ave) ML.
For another series, the system named is HUVEC. Put plainly: Cytotoxicity assay (monolayer), HUVEC. It is filed as cell-based. Particulars: ML (monolayer), read-out: HUVEC (EC50 Ave) ML.
A further series addresses Akt (Homo sapiens, UniProt P31749). Put plainly: Akt kinase assay (PKLight ATP utilization, substrate phosphorylation as % of parent peptide). It is filed as biochemical. The arrangement: purchased Upstate (Charlottesville, Va.) 14-276. The method, then:
Another test may involve monitoring the consumption of ATP. For example, ATP concentrations at time 0 or after 4 hour incubation may be monitored by luciferase reaction (PKLight kit obtained from Cambrex Corporation, One Meadowlands Plaza, East Rutherford, N.J. 07073), which generate a luminescence readout in the presence of ATP. Assays are initiated by mixing a kinase and a peptide in the presence of 40 μM ATP. After 4 hour of incubation at 30° C., PKLight reagent is added and mixed well, and luminescence readout measured. The rate of peptide phosphorylation is then directly related to the rate of decrease in the observed luminescence. Based on the first test, linkers of appropriate lengths and peptides with an effective amount of kinase activity which may be expected to be retained in the drug conjugate may be found.
Human Src (#14-326) and Akt (#14-276) kinases were purchased from Upstate (Charlottesville, Va.). Kinase reactions were carried out in 50 μl kinase reaction cocktail (25 mM Tris-HCl, pH 7.5, 5 μM β-glycerophosphate, 2 mM DTT, 0.1 mM Na3VO4, 10 mM MgCl2, 1 mg/ml BSA, […], 0.5 to 1.0 units enzyme). Substrates (peptide or drug-peptide conjugate in […]) were added (25, 50 and 100 μM) and the reaction was incubated for 2-5 hours at 30° C. PKLight reagent (23 μl) (Cambrex BioSciences, Rockland, Me.) was mixed with […] of the above kinase reaction and ATP utilization relative to no substrate and no ATP controls was determined by measuring luminescence with a SpectraMax Gemini EM plate reader (Molecular Devices, Sunnyvale, Calif.). Peptide substrates for Src and Akt have been described. For examples, see Lou et al. Letters in Peptide Science, 2, 289-296 (1995); Lou et al. Bioorganic & Medicinal Chemistry, 4, 677-682 (1996); Alessi et al. FEBS Letters, 399, 333-338 (1996). Substrate phosphorylation potential was determined from the linear portion of the substrate concentration dose response as a percentage of the activity observed with the parent peptide used for drug conjugation.

For series [2], the system named is Normal human foreskin fibroblasts (HFF). To be noted: read-out: HFF (EC50 Ave) ML; HFF, ML (monolayer).
The next series concerns tubulin. The series is described as follows: Fluorescence-based tubulin polymerization assay (MPA; enhancement for paclitaxel, inhibition for vinblastine). In kind it is biochemical. In a few lines:
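Tubulin polymerisation was followed by fluorescence (ex 360/em 405 nm) with 1 mg/ml BSA in all assays. For paclitaxel conjugates, glycerol was omitted. Parent drugs and conjugates were tested at 0.75, 1.5, 3 and 10 micromolar final, and values come from the linear range of the dose responses.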

In the next series the test system is MCF-7 breast carcinoma. Put plainly: Cytotoxicity assay (monolayer), MCF-7.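 Further: cells treated 72 h with 6-8 compound doses versus DMSO vehicle controls, EC50 fitted by 4-parameter dose-response curves, averaged across all tests and lots.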 It is filed as cell-based. Particulars: MCF7, ML (monolayer); read-out: MCF7 (EC50 Ave) ML.
A further series has as its system HT-29 cells. Particulars: read-out: HT29 (EC50 Ave) SA; HT29, SA (soft agar).
For another series, the system named is MCF-7 cells. Particulars: read-out: MCF7 (EC50 Ave) SA; MCF7, SA (soft agar).
For a further series, the target named is T1, Human Src (Homo sapiens, UniProt P12931).
T1 construct: purchased Upstate (Charlottesville, Va.) 14-326
Put plainly: Src kinase assay (PKLight ATP utilization, substrate phosphorylation as % of parent peptide). It is filed as biochemical. An outline of the steps: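 Recombinant human Src or Akt phosphorylated peptide or drug–peptide conjugate substrates (25, 50, 100 μM) at 30° C for 2–5 hours, in Tris-HCl pH 7.5 buffer with MgCl2 and ATP. ATP use was read by luciferase luminescence against no-substrate and no-ATP controls. Phosphorylation was taken from the linear range and expressed as % of the parent peptide.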

The nature of series [3]: Serum stability in RPMI1640 medium containing 10% fetal bovine serum. In kind it is in vitro ADME. As to the method: The stability of conjugates was measured in RPMI1640 cell culture medium containing 10% fetal bovine serum. The serum-containing medium was pre-warmed at 37° C. for 3 min prior to addition of test articles. Test articles, prepared in DMSO as 5 mM stocks, were added to the cell culture media to a final concentration of 10 μM. Aliquots ([…]) were withdrawn in triplicate at 0, 4, 8, 24 and 72 hours and combined with the same volume of ice-cold acetonitrile to terminate the reaction. The mixture was centrifuged at 2,000×g for 10 minutes. One part of the supernatant was mixed with four parts of deionized water to bring down the percentage of organic solvent. The diluted samples were then assayed by LC/MS for the test article. The natural log of the percent remaining was plotted versus time. A linear fit was used to determine the rate constant. The fit was truncated after the percent of remaining test article was less than 10%. The elimination half-lives associated with the disappearance of test articles were determined to compare their relative stability. The assays were carried out by Absorption Systems (Exton, Pa.).

Sequence of Akt (P31749 whole entry): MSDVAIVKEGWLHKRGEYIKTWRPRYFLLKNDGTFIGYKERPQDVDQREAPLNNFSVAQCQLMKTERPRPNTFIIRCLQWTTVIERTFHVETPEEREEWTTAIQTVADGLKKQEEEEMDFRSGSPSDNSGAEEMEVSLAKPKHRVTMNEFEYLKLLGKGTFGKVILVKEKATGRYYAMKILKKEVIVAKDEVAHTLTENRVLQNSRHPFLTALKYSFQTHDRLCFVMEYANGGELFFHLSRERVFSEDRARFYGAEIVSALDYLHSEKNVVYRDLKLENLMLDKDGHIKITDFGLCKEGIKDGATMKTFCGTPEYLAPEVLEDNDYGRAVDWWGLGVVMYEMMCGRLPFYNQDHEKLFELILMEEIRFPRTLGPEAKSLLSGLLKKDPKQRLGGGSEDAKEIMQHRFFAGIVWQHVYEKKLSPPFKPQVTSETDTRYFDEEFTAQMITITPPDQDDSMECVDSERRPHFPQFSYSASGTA

As to “Pv-GRPRTSSFAEG-3Am-VBL (Piv-GRPRTSSFAEG-{3Am‑VBL}; also: 2 TFA salt)”, the EC50 (in series [1]; with HUVEC; in series [2]; in the series with MCF-7 breast carcinoma) was over 100 nM in each case. Further, the “Ave. Akt Kinase Act.” value with Akt is reported as “C (C>40)”. Moreover, in the series with tubulin, the “Ave. MPA Act.” value was “C (C>80)”.
Consider “Pv-GRPRTSSFAEG-PEG(13)-10Ca-PXL (Piv-GRPRTSSFAEG-{PEG(13)-10Ca‑PXL}; also: TFA salt)”, for which the EC50 (in [1]; in the series on HUVEC; in series [2]; with MCF-7 breast carcinoma) was over 100 nM each time. For the same molecule, the “Ave. Akt Kinase Act.” value with Akt is “C (C>40)”. In addition, in the series on tubulin, the “Ave. MPA Act.” value is given as “C (C>80)”.
For “Pv-RSRTSSFAEG-PEG(13)-10Ca-PXL (Piv-RSRTSSFAEG-{PEG(13)-10Ca‑PXL}; also: 2 TFA salt)”, in the series with Akt, the “Ave. Akt Kinase Act.” value was “C (C>40)”. Further, in the series on tubulin, the “Ave. MPA Act.” value is “C (C>80)”.
As for “BOC-YIYGSFR-PEG(11)-3Am-VBL (N-BOC; PEG(11) linker; vinblastine conjugate)”, the EC50 (in [1]; in the series on HT-29 cells; with MCF-7 cells; with HUVEC; in series [2]; in the series on MCF-7 breast carcinoma) was over 100 nM throughout. Also, in the series with Human Src, the “Average src kinase activity” value is on record as “B (B=20-40)”. Further, the “Ave. MPA Act.” value with tubulin was “C (C>80)”.
As to “Ac-YIYGSFR-PEG(11)-3Am-VBL (N-acetyl; PEG(11) linker; vinblastine conjugate)”, the 50% effective concentration (EC50) in series [1] was 20 to 100 nM; in the series with HT-29 cells it was over 100 nM; with MCF-7 cells, 20 to 100 nM; in the series with HUVEC, over 100 nM; in series [2], over 100 nM; in the series on MCF-7 breast carcinoma, 20 to 100 nM. Moreover, the “Average src kinase activity” value with Human Src is recorded as “C (C>40)”. In addition, the “Ave. MPA Act.” value in the series with tubulin was “B (B=50-80)”.
Take “Pv-E(Bzl)YIYGSFK(CBz)-PEG(13)-10Ca-PXL (Piv-E(OBn)YIYGSFK(Cbz)-{PEG(13)″-10Ca-PXL}; also: TFA salt)”: the EC50 in [1] is over 100 nM; in the series with HT-29 cells, over 100 nM; with MCF-7 cells, 20 to 100 nM; with HUVEC it was over 100 nM; in series [2], over 100 nM; in the series on MCF-7 breast carcinoma, over 100 nM. In the series with Human Src, the “Average src kinase activity” value is reported as “A (A<20)”. For the same molecule, in the series on tubulin, the “Ave. MPA Act.” value is on record as “A (A<50)”.
As to “Ac-RSRTSSF-PEG(13)-10Ca-PXL (N-acetyl; PEG(13) linker; paclitaxel conjugate)”, the “Ave. Akt Kinase Act.” value with Akt was “C (C>40)”. In the series on tubulin, the “Ave. MPA Act.” value is on record as “C (C>80)”.
The matching figures for “Pv-RSRKESY-PEG(13)-10Ca-PXL (Piv-RSRKESY-{PEG(13)-10Ca‑PXL}; also: 2 TFA salt)”: “C (C>40)” and “C (C>80)”.
On to “Pv-YIYGSFR-PEG(11)-3Am-VBL (Piv-YIYGSFR-{PEG(11)-3Am‑VBL})”, for which the EC50 (in [1]; with HT-29 cells; in the series with MCF-7 cells; in the series with HUVEC; in series [2]; with MCF-7 breast carcinoma) was over 100 nM throughout. In addition, the “Average src kinase activity” value in the series with Human Src was “B (B=20-40)”. Besides, the “Ave. MPA Act.” value in the series on tubulin is recorded as “C (C>80)”.
On to `CC(=O)O[C@H]1C(=O)[C@@]2(C)[C@H]([C@H](OC(=O)c3ccccc3)[C@]3(O)C[C@H](OC(=O)[C@H](O)[C@@H](NC(=O)c4ccccc4)c4ccccc4)C(C)=C1C3(C)C)[C@]1(OC(C)=O)CO[C@@H]1C[C@@H]2O` [Paclitaxel, reference compound], for which the “Relative Percent Remaining at 0 hr” value in [3] (0 hr) worked out at 100%. Also, the fraction remaining at 4 h, 10 μM in [3] (bovine, 4 hr, read-out: Relative Percent Remaining at 4 hr) was 73%. Besides, the fraction remaining at 8 h, 10 μM in series [3] (bovine, 8 hr, read-out: Relative Percent Remaining at 8 hr) worked out at 59%. Also, in series [3] (bovine, 24 hr, read-out: Relative Percent Remaining at 24 hr), the share remaining at 24 h, 10 μM was 28%. Further, the share remaining at 72 h, 10 μM in [3] (bovine, 72 hr, read-out: Relative Percent Remaining at 72 hr) was under 3%.
For “BOC-EYIYGSFK(BOC)-PEG(11)-3Am-VBL (N-BOC; BOC side chain; PEG(11); vinblastine conjugate)”, the EC50 (in [1]; in the series on HT-29 cells; in the series on MCF-7 cells; in the series on HUVEC; in [2]; in the series on MCF-7 breast carcinoma) was over 100 nM in each case. Further, in the series with Human Src, the “Average src kinase activity” value was “B (B=20-40)”. The “Ave. MPA Act.” value with tubulin is on record as “C (C>80)”.
Consider “Pv-EYIYGSFR-PEG(13)-10Ca-PXL (Piv-EYIYGSFR-{PEG(13)-10Ca‑PXL})”, for which the EC50 (in series [1]; with HT-29 cells; in the series with MCF-7 cells; with HUVEC; in series [2]; in the series on MCF-7 breast carcinoma) was over 100 nM in each case. The “Average src kinase activity” value with Human Src is listed as “B (B=20-40)”. Besides, the “Ave. MPA Act.” value in the series on tubulin is given as “B (B=50-80)”.
Consider “CBz-E(Bzl)YIFGSFK-PEG(11)-3Am-VBL (CBz-Glu(Bzl) N-terminal; PEG(11); vinblastine conjugate)”, for which the EC50 (in [1]; in the series on HT-29 cells; in the series on MCF-7 cells; in the series on HUVEC; in [2]; with MCF-7 breast carcinoma) was over 100 nM throughout. Besides, the “Average src kinase activity” value with Human Src is given as “C (C>40)”. The “Ave. MPA Act.” value in the series with tubulin is on record as “B (B=50-80)”.
Regarding BOC-E(Bzl)YIFGSFK(BOC)-PEG(11)-3Am-VBL, the EC50 in [1] was over 100 nM; with HT-29 cells, 20 to 100 nM; with MCF-7 cells, under 20 nM; in the series on HUVEC, over 100 nM; in [2], over 100 nM; in the series on MCF-7 breast carcinoma, 20 to 100 nM. In addition, the “Average src kinase activity” value with Human Src is given as “A (A<20)”. The “Ave. MPA Act.” value with tubulin was “A (A<50)”.
As to “Ac-EYIYGSFR-PEG(11)-3Am-VBL (N-acetyl, PEG11, vinblastine conjugate)”, the EC50 (in series [1]; in the series on HT-29 cells; in the series with MCF-7 cells; in the series on HUVEC; in series [2]; in the series with MCF-7 breast carcinoma) was over 100 nM in each case. Besides, the “Average src kinase activity” value in the series with Human Src is recorded as “B (B=20-40)”. Besides, in the series with tubulin, the “Ave. MPA Act.” value was “C (C>80)”.
Consider “Pv-E(DMAB)YIYGSFR-PEG(11)-3Am-VBL (EYIYGSFR)”, for which the concentration for a half-maximal effect (EC50) in series [1] is over 100 nM; in the series with HT-29 cells, 20 to 100 nM; in the series with MCF-7 cells, 20 to 100 nM; with HUVEC, 20 to 100 nM; in series [2], over 100 nM; in the series on MCF-7 breast carcinoma, 20 to 100 nM. In addition, the “Average src kinase activity” value with Human Src is recorded as “A (A<20)”. In the series with tubulin, the “Ave. MPA Act.” value is “B (B=50-80)”.

Broadly, the EC50 is the concentration that produces a half-maximal response. By fraction remaining is commonly meant the share of the starting amount still present when the sample was taken.

The values above are taken from US20060234909A1, “Compositions and methods for increasing drug efficiency” (priority 2003, published 2006).
